Assays:
[1] = test system: SLE serum antibody; experiment: ELISA for antibody reactivity of SLE sera to carb-/cit-/native LL37 and carb-REV, and its correlation with SLEDAI; type: binding, human
Description: Anti-native LL37/cit-LL37/carb-LL37 antibodies were measured as described. Briefly, 96-well flat-bottom plates (Non-Binding surface polystyrene, Corning, Glendale, AZ USA) were coated with 2 μg/mL of native LL37, cit-LL37 or carb-LL37 in carbonate buffer (0.1 M NaHCHO3, pH 9) for 2 h (or overnight) and washed four times with PBS plus 0.1% Tween-20. This washing buffer was used for washing at all steps. The blocking buffer containing 2% bovine serum albumin (BSA, Sigma) in PBS was used for at least 1 h (or overnight) to saturate unspecific binding sites. After washing, sera were diluted at various concentrations (usually at 1:100 or 1:200) in PBS + 2% BSA followed by 1 h incubation with a horseradish peroxidase–conjugated (HRP) goat anti-human IgG (Sigma-Aldrich), diluted 1:10,000 in PBS. The color was developed for 5 min with 3,3′,5,5′-tetramethylbenzidine (TMB) substrate (Sigma-Aldrich). The reaction was stopped by adding 50 μL of 2 N H2SO4 and absorbance determined at 450 nm with a reference wavelength of 540 nm. Responses were considered positive when the OD measured exceeded the mean OD values measured in healthy donors’ plasma plus two standard deviations (+2SD), calculated on the HD group values, as described.
(§1) Differences between mean values were assessed by Wilcoxon’s matched-pair signed rank test, to compare responses to antigens and control antigens in the same donor. We used Mann-Whitney test for comparison of T-cell and antibody responses between groups of patients and HD. Statistical significance was set at p < 0.05. Correlation analyses were performed by Spearman’s rank-correlation test. Data were analyzed by GraphPad Prism 7.0 or SPSS software.

[2] = test system: SLE CD4 T-cells; experiment: T-cell proliferation (BrdU incorporation, flow cytometry); type: cell-based, human
Description: (§2) PBMCs were purified from EDTA-treated blood, on Ficoll-Hypaque (Pharmacia Fine Chemicals, Uppsala, Sweden) and were incubated (10^5 cells/well) in 96-well-flat-bottom-microplates (BD) in T-cell-medium (RPMI 1640, 10% heat-inactivated human serum, HS, Gibco), 2 mM L-glutamine, 10 U/mL penicillin and 100 μg/mL streptomycin), with/without peptides. We performed assays on fresh cells, within 1-to-3 h from collection or on PBMCs frozen in 90% FCS−10% DMSO, whose viability we assessed by Trypan blue exclusion, with an inverted microscope. Recovery of live cells was between 65 and 85% of the frozen number. At day 3 and 5, BrdU was added (1 μg/mL). BrdU-incorporation was detected by APC-labeled anti-BrdU antibody (BD Pharmingen), after surface staining for CD4, CD3, CD8 and analyzed by flow cytometry (Gallios, BeckmanCoulter, Brea, CA, USA). Internal control for T-cell viability and proliferation was PHA treatment (2 μg/mL). SI for proliferation was calculated by dividing percent of BrdU-staining in the presence of each peptide antigen (LL37, carb-LL37, cit-LL37, LL37 reverse, REV; cit-LL37 reverse, cit-REV; carb-LL37 reverse, carb-REV) by the percent obtained in the untreated cells. SI for proliferation was considered positive when the values of percent of BrdU positive cells was three times higher than the values obtained with the control peptides (SI > 3). Assays were repeated twice with each patient. In rare cases in which background proliferation (culture with REV, cit-REV, carb-REV), exceeded antigen-specific proliferation (that is response to LL37, carb-LL37, cit-LL37), the assay was repeated three times. Concomitant phenotype analysis of LL37-responder T-cells included staining for CD3, CD4, CD8, CXCR5 (CXCR5 was assessed on BrdU/CD3/CD4-positive cells).
as §1

[3] = test system: SLE CD4 T-cells (CXCR5); experiment: CXCR5 (TFH marker) expression on stimulated CD4 T-cells, flow cytometry; type: cell-based, human; settings: representative plot
From the text: Antibodies to CD4, CD8, CD3 conjugated with various fluorochromes (FITC, phycoerythrin (PE), peridinin-chlorophyll-protein (PerCp), allophycocyanin (APC), PE-Cy7) were from BD Biosciences or eBiosciences (San Diego, CA). For further LL37-specific T-cell characterization and B-cell characterization we used: APC-Cy7-CXCR5 (FAB190), APC or PE-CD38, CD19, CD20, CD27, antibodies, purchased from BD Biosciences, eBiosciences, Novus Biologicals (Littleton, CO), R&D (Minneapolis, MN). Appropriate isotype-matched controls were purchased from the same companies. PerCp-7-AAD was from BD Pharmingen, DAPI from Invitrogen (Thermo Fisher, Carlsbad, CA, USA).
as §2

[4] = test system: native LL37-P1-specific T-cells (HLA-DRB5*0101 tetramer); experiment: Peptide-MHC-tetramer staining of T-cells after PBMC stimulation; type: cell-based, human; settings: 6 days stimulation, CD38hi CD4 T-cells
Description: Peptide-MHC-tetramers were from ImmunAware (Denmark). Staining was performed for 40 min with 1microL of tetramer suspension at 37 °C, followed by staining for CD4 (4 °C, 20 min), without washing. After incubation with anti-CD4 antibody, cells were washed, resuspended in PBS and kept at 4 °C. Before flow cytometry-acquisition, cells were labeled with PercP-conjugated 7-AAD to exclude dead cells. The peptide-MHC-tetramers used in this study are: the HLA-DR15-P1: tetramer of HLA-DRB1*1501 LLGDFFRKSKEKIGK (corresponding to the first aa at the NH2-term of the mature native LL37), (PE-conjugated) and the control peptide-MHC-tetramer called DR15-ctr: tetramer of HLA-DRB1*1501 […]1-169-185 (PE-conjugated). The other couple of peptide-MHC-tetramers used were HLA-DRB5*0101 loaded with the same LL37 epitope as above and the control tetramer HLA-DRB5*0101 loaded with the control epitope PVSKMRMATPLLMQA (CLIP-derived).

[5] = test system: pDCs; experiment: IFN-α production by purified pDCs stimulated with peptide-DNA complexes; type: cell-based, human; settings: peptide without DNA, 24 h, ELISA
Description: Buffy-coats from HD were from Centro Trasfusionale, Policlinico Umberto I, Rome, IT. After separation of mononuclear cells by Ficoll centrifugation, pDCs were purified as described, by using the Diamond Plasmacytoid Dendritic Cell Isolation Kit (Miltenyi Biotec, Bergisch Gladbach, Germany) to obtain 99% purity. Purified pDCs were seeded into 96-well round-bottom plates at 3.5/5 × 10^4 cells per well in 200 μL RPMI 1640 (GIBCO), supplemented with 10% fetal calf serum (FCS), 1% Hepes and 1% sodium pyruvate. LL37, cit-LL37 and carb-LL37 were premixed with total human genomic DNA (extracted from PBMC of HD, see below) (15 μg/mL). After 15 min incubation at room temperature the mix was added to the pDC cultures. IFN-α in supernatants was measured by ELISA (MabTech, Stockholm, Sweden), after 24 h (according to the manufacturer’s instructions).
Human DNA was extracted from PBMCs, as reported and was fragmented by sonication. Five milligrams of DNA in a volume of 300 μL were fragmented using the Sonics Vibra Cell sonicator (Newtown, CT, USA), with the following settings: 2, 4 and 10 sonication cycles (30 s on, 30 s off, in ice) to obtain DNA fragment sizes between 100 and 1000 bp. The resulting size distribution was controlled by 2% agarose gel electrophoresis.

[6] = test system: memory B-cells; settings: cited from earlier work
From the text: LL37 is able to activate innate immune cells and B-cells after forming complexes with nucleic acids in a special molecular conformation, suitable for TLR stimulation. PDCs, as well as B-cells, are both activated by LL37-DNA or LL37-RNA complexes.

In the case of “SETRPVLNRLFDK*IRQVIRKEFEK*GIK*EK*SK*RFFDGLL* [carb-REV, control carbamylated reverse (REV) LL37, reference compound]”, the “SLE patients showing an antibody response to the antigen” value ([1]; ELISA, 2 μg/mL coated antigen, sera 1:100 or 1:200, OD 450 nm, positive: OD > mean HD + 2SD, carb-LL37 28 of 45, carb-REV 8 of 47 SLE patients) is reported as 17%, the “SLE serum antibody reactivity (OD) compared to healthy donors” value ([1]; ELISA, OD, Mann-Whitney's test) is reported as “also significant, as compared to response of HD but significantly lower than the response to carb-LL37” and the “BrdU-positive CD3+CD4+ T-cells” value ([2]; BrdU staining, representative zebra plot, Figure S5a) is reported as 5.35%. For the same substance, the “CXCR5-positive cells among total CD3+CD4+ cells” value ([3]; Figure S5b left panels) was 3.28%, the “CXCR5-positive cells among CD3+CD4+BrdU+ cells” value ([3]; Figure S5b middle panels) was 8.76% and the “CXCR5-positive cells among CD3+CD4+BrdU- cells” value ([3]; Figure S5b right panels) was 3.26%.

In the case of “LLGDFFRKSKEKIGKEFKRIVQRIKDFLRNLVPRTES [LL37, mature human cathelicidin antimicrobial peptide, COOH-terminal part (res. 134–170), purchased from Proteogenix]”, the “Antibody reactivity in SLE patients with renal damage versus without renal damage” value ([1]; ELISA, N=6 with and N=44 without renal damage, Mann-Whitney, Figure S3 panel a P 0.047) is reported as “non-significant anti-cit- and anti-native-LL37 antibody increase”, the “Correlation of antibody reactivity with SLEDAI” value ([1]; Spearman) is reported as “both responses also correlated with SLEDAI” and the “SLE patients responding by T-cell proliferation” value ([2]; BrdU, positive if SI > 3, carb-LL37 8 of 25, native LL37 17 of 31, cit-LL37 16 of 31 SLE patients) is reported as 55%. The “Control (Ctr-B5) tetramer positive T-cells” value ([4]; Ctr-B5 tetr, lower panels Figure S6) was 0.2%, the “LL37-specific T-cells (LL37-B5 tetramer positive)” value ([4]; LL37-B5 tetr, upper panels Figure S6) was 4.27% and the “IFN-α response of pDCs to peptide alone” value [5] was “no IFN-α response”. The “Stimulation of memory B-cells to mature into plasma cells, LL37-DNA complexes” value [6] was “able to stimulate memory B-cells to mature into plasma cells”.
